Results taken from patent US9914731B2, “Pyrazolo[1,5-a]pyridine derivatives and methods of their use” (Ignyta, Inc., priority 2013, dated 2018).
pIC50: −log10 of the molar value.

What was measured:
[1] = molecular target: recombinant human baculovirus-expressed AXL (Homo sapiens (Human), UniProt P30530); assay: AXL kinase assay (HTRF KinEASE); assay type: biochemical; details: average of two or more determinations
[2] = molecular target: recombinant human baculovirus-expressed cMET (Homo sapiens (Human), UniProt P08581); assay: c-MET kinase assay (HTRF KinEASE); assay type: biochemical; details: average of two or more determinations; read-out: c-MET IC50

Row | Compound | pIC50 [1] | pIC50 [2]
1 | 1-Ethyl-3-(4-fluoro-phenyl)-2,4-dioxo-1,2,3,4-tetrahydro-pyrimidine-5-carboxylic acid {3-fluoro-4-[6-(1H-pyrazol-3-yl)-pyrazolo[1,5-a]pyridin-4-yloxy]-phenyl}-amide [Example 40] | > 8.00 | > 8.00
2 | O=C(Nc1ccc(Oc2cc(-c3cccnc3)cn3nccc23)c(F)c1)c1cccn(-c2ccc(F)cc2)c1=O [Example 25, 1-(4-Fluoro-phenyl)-2-oxo-1,2-dihydro-pyridine-3-carboxylic acid 3-fluoro-4-(6-pyridin-3-yl-pyrazolo[1,5-a]pyridin-4-yloxy)-phenyl-amide] | > 8.00 | > 8.00
3 | O=C(Nc1ccc(Oc2cc(-c3ccc(N4CCOCC4)nc3)cn3nccc23)c(F)c1)c1cccn(-c2ccc(F)cc2)c1=O [Example 26, 1-(4-Fluoro-phenyl)-2-oxo-1,2-dihydro-pyridine-3-carboxylic acid {3-fluoro-4-[6-(6-morpholin-4-yl-pyridin-3-yl)-pyrazolo[1,5-a]pyridin-4-yloxy]-phenyl}-amide] | > 8.00 | > 8.00
4 | O=C(Nc1ccc(Oc2cc(-c3ccncc3)cn3nccc23)c(F)c1)c1cccn(-c2ccc(F)cc2)c1=O [Example 27, 1-(4-Fluoro-phenyl)-2-oxo-1,2-dihydro-pyridine-3-carboxylic acid [3-fluoro-4-(6-pyridin-4-yl-pyrazolo[1,5-a]pyridin-4-yloxy)-phenyl]-amide] | > 8.00 | > 8.00
5 | Cn1cc(-c2cc(Oc3ccc(NC(=O)c4cccn(-c5ccc(F)cc5)c4=O)cc3F)c3ccnn3c2)cn1 [Example 29, 1-(4-Fluoro-phenyl)-2-oxo-1,2-dihydro-pyridine-3-carboxylic acid {3-fluoro-4-[6-(1-methyl-1H-pyrazol-4-yl)-pyrazolo[1,5-a]pyridin-4-yloxy]-phenyl}-amide] | > 8.00 | > 8.00
6 | Cn1cc(-c2cc(Oc3ccc(NC(=O)c4c[nH]c(=O)n(-c5ccc(F)cc5)c4=O)cc3F)c3ccnn3c2)cn1 [Example 30, 3-(4-Fluoro-phenyl)-2,4-dioxo-1,2,3,4-tetrahydro-pyrimidine-5-carboxylic acid {3-fluoro-4-[6-(1-methyl-1H-pyrazol-4-yl)-pyrazolo[1,5-a]pyridin-4-yloxy]-phenyl}-amide] | > 8.00 | > 8.00
7 | CCOCCn1cc(C(=O)Nc2ccc(Oc3cc(-c4cnn(C)c4)cn4nccc34)c(F)c2)c(=O)n(-c2ccc(F)cc2)c1=O [Example 31, 1-(2-Ethoxy-ethyl)-3-(4-fluoro-phenyl)-2,4-dioxo-1,2,3,4-tetrahydro-pyrimidine-5-carboxylic acid {3-fluoro-4-[6-(1-methyl-1H-pyrazol-4-yl)-pyrazolo[1,5-a]pyridin-4-yloxy]-phenyl}-amide] | > 8.00 | > 8.00
8 | CCn1cc(C(=O)Nc2ccc(Oc3cc(-c4cnn(C)c4)cn4nccc34)c(F)c2)c(=O)n(-c2ccc(F)cc2)c1=O [Example 33, 1-Ethyl-3-(4-fluoro-phenyl)-2,4-dioxo-1,2,3,4-tetrahydro-pyrimidine-5-carboxylic acid {3-fluoro-4-[6-(1-methyl-1H-pyrazol-4-yl)-pyrazolo[1,5-a]pyridin-4-yloxy]-phenyl}-amide] | > 8.00 | > 8.00
9 | Cc1ccc(C(=O)Nc2ccc(Oc3cc(-c4cnn(C)c4)cn4nccc34)c(F)c2)c(=O)n1-c1ccc(F)cc1 [Example 34, 1-(4-Fluoro-phenyl)-6-methyl-2-oxo-1,2-dihydro-pyridine-3-carboxylic acid {3-fluoro-4-[6-(1-methyl-1H-pyrazol-4-yl)-pyrazolo[1,5-a]pyridin-4-yloxy]-phenyl}-amide] | > 8.00 | > 8.00
10 | Cc1c(-c2cc(Oc3ccc(NC(=O)c4cccn(-c5ccc(F)cc5)c4=O)cc3F)c3ccnn3c2)cnn1C [Example 39, 1-(4-Fluoro-phenyl)-2-oxo-1,2-dihydro-pyridine-3-carboxylic acid {4-[6-(1,5-dimethyl-1H-pyrazol-4-yl)-pyrazolo[1,5-a]pyridin-4-yloxy]-3-fluoro-phenyl}-amide] | > 8.00 | > 8.00
11 | O=C(Nc1ccc(Oc2cc(-c3cn[nH]c3)cn3nccc23)c(F)c1)c1cccn(-c2ccc(F)cc2)c1=O [Example 42, 1-(4-Fluoro-phenyl)-2-oxo-1,2-dihydro-pyridine-3-carboxylic acid {3-fluoro-4-[6-(1H-pyrazol-4-yl)-pyrazolo[1,5-a]pyridine-4-yloxy]-phenyl}-amide] | > 8.00 | > 8.00
12 | Cc1[nH]ncc1-c1cc(Oc2ccc(NC(=O)c3cccn(-c4ccc(F)cc4)c3=O)cc2F)c2ccnn2c1 [Example 44, 1-(4-Fluoro-phenyl)-2-oxo-1,2-dihydro-pyridine-3-carboxylic acid{3-fluoro-4-[6-(5-methyl-1H-pyrazol-4-yl)-pyrazolo[1,5-a]pyridin-4-yloxy]-phenyl}-amide] | > 8.00 | > 8.00
13 | Cc1ccc(C(=O)Nc2ccc(Oc3cc(-c4cnco4)cn4nccc34)c(F)c2)c(=O)n1-c1ccc(F)cc1 [Example 51, 1-(4-Fluoro-phenyl)-6-methyl-2-oxo-1,2-dihydro-pyridine-3-carboxylic acid [3-fluoro-4-(6-oxazol-5-yl-pyrazolo[1,5-a]pyridin-4-yloxy)-phenyl]-amide] | > 8.00 | > 8.00
14 | CCn1cc(C(=O)Nc2ccc(Oc3cc(-c4cnsc4)cn4nccc34)c(F)c2)c(=O)n(-c2ccc(F)cc2)c1=O [Example 54, 1-Ethyl-3-(4-fluoro-phenyl)-2,4-dioxo-1,2,3,4-tetrahydro-pyrimidine-5-carboxylic acid[3-fluoro-4-(6-isothiazol-4-yl-pyrazolo[1,5-a]pyridin-4-yloxy)-phenyl]-amide] | > 8.00 | > 8.00
15 | CC(C)n1cc(C(=O)Nc2ccc(Oc3cc(-c4cnsc4)cn4nccc34)c(F)c2)c(=O)n(-c2ccc(F)cc2)c1=O [Example 55, 3-(4-Fluoro-phenyl)-1-isopropyl-2,4-dioxo-1,2,3,4-tetrahydro-pyrimidine-5-carboxylic acid[3-fluoro-4-(6-isothiazol-4-yl-pyrazolo[1,5-a]pyridin-4-yloxy)-phenyl]-amide] | > 8.00 | > 8.00
16 | Cn1cnc(-c2cc(Oc3ccc(Nc4ncccn4)cc3F)c3ccnn3c2)c1 [Example 152, {3-Fluoro-4-[6-(1-methyl-1H-imidazol-4-yl)-pyrazolo[1,5-a]pyridin-4-yloxy]-phenyl}-pyrimidin-2-yl-amine] |  | 5.00 to 6.00
17 | Cn1cnc(-c2cc(Oc3ccc(NS(=O)(=O)c4ccc(F)cc4)cc3F)c3ccnn3c2)c1 [Example 153, 4-Fluoro-N-{3-fluoro-4-[6-(1-methyl-1H-imidazol-4-yl)-pyrazolo[1,5-a]pyridin-4-yloxy]-phenyl}-benzenesulfonamide] |  | 5.00 to 6.00
18 | Cc1ccc(C(=O)Nc2ccc(Oc3cc(Br)cn4nccc34)c(F)c2)c(=O)n1-c1ccc(F)cc1 [Example 157, 1-(4-Fluoro-phenyl)-6-methyl-2-oxo-1,2-dihydro-pyridine-3-carboxylic acid [4-(6-bromo-pyrazolo[1,5-a]pyridin-4-yloxy)-3-fluoro-phenyl]-amide] |  | 7.00 to 8.00
